Tested on: pigweed (Amaranthus retroflexus)
Test: Test F preemergence
Type: in vivo
Conditions: 21 days, scale 0 to 100
Text: Seeds of plant species selected from bermudagrass (Cynodon dactylon), Surinam grass (Brachiaria decumbens), large (Lg) crabgrass (Digitaria sanguinalis), crabgrass, naked (naked crabgrass, Digitaria nuda), foxtail, green (green foxtail, Setaria viridis), johnsongrass (Sorghum halepense), kochia (Kochia scoparia), morningglory (pitted morningglory, Ipomoea lacunosa), nutsedge, purple (purple nutsedge, Cyperus rotundus), ragweed (common ragweed, Ambrosia elatior), mustard, black (black mustard, Brassica nigra), guineagrass (Panicum maximum), dallisgrass (Paspalum dilatatum), barnyardgrass (Echinochloa crus-galli), sandbur (southern sandbur, Cenchrus echinatus), sowthistle (common sowthistle, Sonchus oleraceous), Italian ryegrass (Lolium multiflorum), signalgrass (broadleaf signalgrass, Brachiaria platyphylla), dayflower (Virginia (VA) dayflower, Commelina virginica), bluegrass (annual bluegrass, Poa annua), quackgrass (Elytrigia repens), mallow (common mallow, Malva sylvestris), buckwheat, wild (wild buckwheat, Polygonum convolvulus), leafy spurge (Euphorbia esula), chickweed (common chickweed, Stellaria media), wild poinsettia (Euphorbia heterophylla), and pigweed (Amaranthus retroflexus) were planted into a blend of loam soil and sand and treated preemergence with test a chemical formulated in a non-phytotoxic solvent mixture which included a surfactant.
Treated plants and controls were maintained in a greenhouse for 21 days, after which time all species were compared to controls and visually evaluated. Plant response ratings, summarized in Table F, are based on a scale of 0 to 100 where 0 is no effect and 100 is complete control. A dash (-) response means no test result.

Measured: Plant response rating, Pigweed

N#Cc1cccc(Oc2ncc(Cl)cn2)c1Oc1ncc(Cl)cn1 [Compound 3, 2,3-bis[(5-chloro-2-pyrimidinyl)oxy]benzonitrile]
100: 62 g ai/ha | 125 g ai/ha | 250 g ai/ha

Source: patent publication US20170190671A1, “BIS(ARYL)CATECHOL DERIVATIVES AS HERBICIDES” (E I DU PONT DE NEMOURS AND COMPANY, priority 2014, published 2017)
